US11026877B2, “Cosmetic compositions for bleaching the skin” (Henkel AG & Co. KGaA, priority 2014, dated 2021)

How the values were obtained:
Assay type in all cases: cell-based, human
Set-up in all cases: key: + stands for increased expression; − for reduced expression; 0 for no change
Conditions in all cases: topical, 24 hours, 30 μL, in water with 3% by weight PEG-40 Hydrogenated Castor Oil; in comparison with the blank control
TRP2 = assay: Gene expression by quantitative real-time PCR in reconstructed melanocyte models type VI (Skinethic): TRP2
Description: (§1) The effect of licorice extract (oil-soluble) and ascorbyl tetraisopalmitate on the expression of melanogenesis-relevant genes was studied in reconstructed melanocyte models type VI from the company Skinethic. In this case, human keratinocytes were cultured together with type VI melanocytes, so that a very dark skin model forms. Together the cells form a three-dimensional epithelial tissue. Three models each were treated topically for 24 hours with 30 μL of the test formulations. In this case, the formulation is first applied to the model and then carefully distributed with a brush. Incubation then occurs at 37° C. with 5% CO2. Untreated models and models treated with a blank control (3% PEG-40 Hydrogenated Castor Oil in water) were run concurrently as the control. The gene expressions of the melanocyte-specific markers were studied using quantitative real-time PCR. […] In the subsequent PCR reaction, which is carried out with the aid of gene-specific primers for the particular markers and is used for the amplification of the target gene segments, the formation of the PCR products is detected online via a fluorescence signal. The fluorescence signal in this case is proportional to the amount of the formed PCR product. The greater the expression of a specific gene, the greater the amount of the formed PCR product and the greater the fluorescence signal. […]

TRP1 = assay: Gene expression by quantitative real-time PCR in reconstructed melanocyte models type VI (Skinethic): TRP1
Description: as §1

Tyrosinase = assay: Gene expression by quantitative real-time PCR in reconstructed melanocyte models type VI (Skinethic): Tyr
Description: as §1

gp100 = assay: Gene expression by quantitative real-time PCR in reconstructed melanocyte models type VI (Skinethic): gp100
Description: as §1

ckit = assay: Gene expression by quantitative real-time PCR in reconstructed melanocyte models type VI (Skinethic): ckit
Description: as §1

With `CCCCCCCCC(CCCCCC)C(=O)OC[C@H](OC(=O)C(CCCCCC)CCCCCCCC)[C@H]1OC(=O)C(OC(=O)C(CCCCCC)CCCCCCCC)=C1OC(=O)C(CCCCCC)CCCCCCCC` (some centres unmarked) [0.05% Vitamin tetraisopalmitate, ascorbyl tetraisopalmitate] the TRP2 gene expression (TRP2) was “+”, the TRP1 gene expression (TRP1) was “−” and the Tyr gene expression (Tyrosinase) was “+”. The Gp100 gene expression (gp100) was “−” and the ckit gene expression (ckit) was 0.
